Data reported in patent publication US20240376097A1, “BCL-2 Inhibitor” (BeiGene Ltd., priority 2020, published 2024).

Columns and labels:
[1] = tested on: BCL-2 G101V knock-in cell line H96 (derive from RS4;11); test: Bcl 2-G101V Knock-In RS4;11 Cell Proliferation Assay; assay type: cell-based; conditions: Homo sapiens, RS4;11 Bcl-2 G101V knock-in clone H96, 48 hrs, CellTiter-GLO, read-out: Cellular proliferation assay (IC50, nM) RS4
How it was run: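 CellTiter-Glo luminescence after 48 h, 37 °C compound treatment (10 concentrations, maximum 1 μM or 10 μM) gave mean IC50 values. Cells were 50,000 per well of H96, a BCL2-G101V knock-in single clone derived from RS4;11 by Cas9 editing.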

[2] = tested on: recombinant human Bcl-2-G101V protein; test: Bcl-2-G101V TR-FRET Assay; assay type: binding; conditions: ratio of biochemical IC50 Bcl-2 G101V / Bcl-2 WT
How it was run: (§1)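 TR-FRET read at excitation 337 nm with emission at 490 nm and 520 nm. Inhibition of Bcl-2-G101V binding to its ligand across increasing compound concentrations was calculated from the 490/520 nm fluorescence ratio, and IC50 values came from four-parameter logistic fits.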

[3] = biological target: recombinant human Bcl-2-G101V protein (Homo sapiens (Human), UniProt P10415, G101V); test: Bcl-2-G101V TR-FRET Assay; assay type: binding; conditions: Bcl-2 G101V mutant, TR-FRET; read-out: Biochemical assay (IC50, nM) Bcl-2 G101V
How it was run: as §1

[4] = biological target: Recombinant human Bcl-2 protein (Homo sapiens (Human), UniProt P10415); test: Bcl-2 TR-FRET Assay; assay type: binding; conditions: Bcl-2 wild type, TR-FRET; read-out: Biochemical assay (IC50, nM) Bcl-2 WT
How it was run: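 In pH 7.5 phosphate buffer containing NaCl, EDTA, Tween-20 and BSA, 0.05 nM Bcl-2 saw serially diluted compound for 0.5 h before 0.5 nM FITC-Bak peptide was added. Signal ratio at 520/490 nm after 1 h yielded IC50.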

[5] = tested on: RS4;11 (BCL-2 dependent acute lymphoblastic leukemia cell line); test: RS4;11 Cell Proliferation Assay; assay type: cell-based; conditions: Homo sapiens, RS4-11, RS4;11 cells, read-out: Cellular proliferation assay (IC50, nM) RS4
How it was run: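 Viability measured via CellTiter-Glo luminescence after a 48 h, 37 °C exposure to compounds (10 points, highest 1 μM). Seeding was 50,000 RS4;11 cells per well in 10% FBS RPMI-1640; IC50 given as mean.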

SMILES | IC50 [1] [nM] | Ratio of Bcl-2 G101V/WT [2] | IC50 [3] [nM] | IC50 [4] [nM] | IC50 [5] [nM]
COc1cc(CN2CCN(C3CC4(C3)CN(c3ccc(C(=O)NS(=O)(=O)c5ccc(NC[C@H]6CC[C@](C)(O)CC6)c([N+](=O)[O-])c5)c(Oc5cnc6[nH]cc(F)c6c5)c3)C4)[C@H](c3ccccc3C(C)C)C2)ccc1Cl [Example 325, 4-(6-((R)-4-(4-chloro-3-methoxybenzyl)-2-(2-isopropylphenyl)piperazin-1-yl)-2-azaspiro[3.3]heptan-2-yl)-2-((3-fluoro-1H-pyrrolo[2,3-b]pyridin-5-yl)oxy)-N-((4-((((1r,4r)-4-hydroxy-4-methylcyclohexyl)methyl)amino)-3-nitrophenyl)sulfonyl) benzamide] | 0.53 | 2 | 0.97 | 0.49 | 0.21
CCc1ccc(CN2CCN(C3CC4(C3)CN(c3ccc(C(=O)NS(=O)(=O)c5ccc(NC[C@H]6CC[C@](C)(O)CC6)c([N+](=O)[O-])c5)c(Oc5cnc6[nH]ccc6c5)c3)C4)[C@H](c3ccccc3C(C)C)C2)cc1OC [Example 271, 2-((1H-pyrrolo[2,3-b]pyridin-5-yl)oxy)-4-(6-((R)-4-(4-ethyl-3-methoxybenzyl)-2-(2-isopropylphenyl)piperazin-1-yl)-2-azaspiro[3.3]heptan-2-yl)-N-((4-((((1r,4r)-4-hydroxy-4-methylcyclohexyl)methyl)amino)-3-nitrophenyl)sulfonyl)benzamide] | 0.4 | 3.1 | 1.5 | 0.47 | 0.11
COc1cccc(CN2CCN(C3CC4(CCN(c5ccc(C(=O)NS(=O)(=O)c6ccc(NC[C@H]7CC[C@](C)(O)CC7)c([N+](=O)[O-])c6)c(Oc6cnc7[nH]ccc7c6)c5)CC4)C3)C(c3ccccc3C(C)C)C2)c1 (stereo partly drawn) [Example 44, 2-((1H-pyrrolo[2,3-b]pyridin-5-yl)oxy)-N-((4-((((1r,4r)-4-hydroxy-4-methylcyclohexyl)methyl)amino)-3-nitrophenyl)sulfonyl)-4-(2-(2-(2-isopropylphenyl)-4-(3-methoxybenzyl)piperazin-1-yl)-7-azaspiro[3.5]nonan-7-yl) benzamide] | 3.31 | 2.8 | 0.84 | 0.3 | 0.5
CC(C)c1ccccc1C1CN(Cc2cccc3c2OCCC3)CCN1C1CC2(CCN(c3ccc(C(=O)NS(=O)(=O)c4ccc(NC[C@H]5CC[C@](C)(O)CC5)c([N+](=O)[O-])c4)c(Oc4cnc5[nH]ccc5c4)c3)CC2)C1 (stereo partly drawn) [Example 130, 2-((1H-pyrrolo[2,3-b]pyridin-5-yl)oxy)-4-(2-(4-(chroman-8-ylmethyl)-2-(2-isopropylphenyl)piperazin-1-yl)-7-azaspiro[3.5]nonan-7-yl)-N-((4-((((1r,4r)-4-hydroxy-4-methylcyclohexyl)methyl)amino)-3-nitrophenyl)sulfonyl)benzamide] | 2.8 | 3.4 | 1.9 | 0.57 | 0.34
CC(C)c1ccccc1[C@@H]1CN(Cc2ccc3c(c2)OCC3(C)C)CCN1C1CC2(C1)CN(c1ccc(C(=O)NS(=O)(=O)c3ccc(NC[C@H]4CC[C@](C)(O)CC4)c([N+](=O)[O-])c3)c(Oc3cnc4[nH]cc(F)c4c3)c1)C2 [Example 311, 4-(6-((R)-4-((3,3-dimethyl-2,3-dihydrobenzofuran-6-yl)methyl)-2-(2-isopropylphenyl)piperazin-1-yl)-2-azaspiro[3.3]heptan-2-yl)-2-((3-fluoro-1H-pyrrolo[2,3-b]pyridin-5-yl)oxy)-N-((4-((((1r,4r)-4-hydroxy-4-methylcyclohexyl)methyl)amino)-3-nitrophenyl)sulfonyl)benzamide] | 2.3 | 3.4 | 1.5 | 0.43 | 0.42
COc1cc(CN2CCN(C3CC4(CCN(c5ccc(C(=O)NS(=O)(=O)c6ccc(NC[C@H]7CC[C@](C)(O)CC7)c([N+](=O)[O-])c6)c(Oc6cnc7[nH]ccc7c6)c5)CC4)C3)C(c3ccccc3C(C)C)C2)cc(Cl)c1OC (stereo partly drawn) [Example 148, 2-((1H-pyrrolo[2,3-b]pyridin-5-yl)oxy)-4-(2-(4-(3-chloro-4,5-dimethoxybenzyl)-2-(2-isopropylphenyl)piperazin-1-yl)-7-azaspiro[3.5]nonan-7-yl)-N-((4-((((1r,4r)-4-hydroxy-4-methylcyclohexyl)methyl)amino)-3-nitrophenyl)sulfonyl)benzamide] | 2.81 | 3.6 | 2 | 0.56 | 0.46
CC(C)c1ccccc1[C@@H]1CN(Cc2cnn(C)c2)CCN1C1CC2(CCN(c3ccc(C(=O)NS(=O)(=O)c4ccc(NC[C@H]5CC[C@](C)(O)CC5)c([N+](=O)[O-])c4)c(Oc4cnc5[nH]ccc5c4)c3)CC2)C1 (single isomer, unassigned) [Example 22b, 2-((1H-pyrrolo[2,3-b]pyridin-5-yl)oxy)-N-((4-((((1r,4r)-4-hydroxy-4-methylcyclohexyl)methyl)amino)-3-nitrophenyl)sulfonyl)-4-(2-((S or R)-2-(2-isopropylphenyl)-4-((1-methyl-1H-pyrazol-4-yl)methyl)piperazin-1-yl)-7-azaspiro[3.5]nonan-7-yl)benzamide] | 57.3 | 50.0 | 1.9 | 0.038 | 7.6
COc1cc(CN2CCN(C3CC4(CCN(c5ccc(C(=O)NS(=O)(=O)c6ccc(NC[C@H]7CC[C@](C)(O)CC7)c([N+](=O)[O-])c6)c(Oc6cnc7[nH]cc(F)c7c6)c5)CC4)C3)[C@H](c3ccccc3C(C)C)C2)ccc1C(C)C [Example 264, 2-((3-fluoro-1H-pyrrolo[2,3-b]pyridin-5-yl)oxy)-N-((4-((((1r,4r)-4-hydroxy-4-methylcyclohexyl)methyl)amino)-3-nitrophenyl)sulfonyl)-4-(2-((R)-4-(4-isopropyl-3-methoxybenzyl)-2-(2-isopropylphenyl)piperazin-1-yl)-7-azaspiro[3.5]nonan-7-yl)benzamide] | 0.78 | 3.8 | 7.3 | 1.9 | 0.26
CC(C)c1ccccc1C1CN(C2CCCCC2)CCN1C1CC2(CCN(c3ccc(C(=O)NS(=O)(=O)c4ccc(NC[C@H]5CC[C@](C)(O)CC5)c([N+](=O)[O-])c4)c(Oc4cnc5[nH]ccc5c4)c3)CC2)C1 (stereo partly drawn) [Example 9] | 4.37 | 15.3 | 0.52 | 0.034 | 0.51
COc1cc(CN2CCN(C3CC4(CCN(c5ccc(C(=O)NS(=O)(=O)c6ccc(NC[C@H]7CC[C@](C)(O)CC7)c([N+](=O)[O-])c6)c(Oc6cnc7[nH]ccc7c6)c5)CC4)C3)[C@H](c3ccccc3C(C)C)C2)ccc1F [Example 121a, 2-((1H-pyrrolo[2,3-b]pyridin-5-yl)oxy)-4-(2-((R)-4-(4-fluoro-3-methoxybenzyl)-2-(2-isopropylphenyl)piperazin-1-yl)-7-azaspiro[3.5]nonan-7-yl)-N-((4-((((1r,4r)-4-hydroxy-4-methylcyclohexyl)methyl)amino)-3-nitrophenyl)sulfonyl)benzamide] | 0.603 | 3.4 | 0.4 | 0.12 | 0.153
[2H]C([2H])([2H])Oc1ccc(CN2CCN(C3CC4(CCN(c5ccc(C(=O)NS(=O)(=O)c6ccc(NC[C@H]7CC[C@](C)(O)CC7)c([N+](=O)[O-])c6)c(Oc6cnc7[nH]ccc7c6)c5)CC4)C3)C(c3ccccc3C(C)C)C2)cc1OC([2H])([2H])[2H] (stereo partly drawn) [Example 175, 2-((1H-pyrrolo[2,3-b]pyridin-5-yl)oxy)-4-(2-(4-(3,4-bis(methoxy-d3)benzyl)-2-(2-isopropylphenyl)piperazin-1-yl)-7-azaspiro[3.5]nonan-7-yl)-N-((4-((((1r,4r)-4-hydroxy-4-methylcyclohexyl)methyl)amino)-3-nitrophenyl)sulfonyl)benzamide] | 1 | 7.0 | 0.29 | 0.041 | 0.33
COc1ccc(CN2CCN(C3CC4(CCN(c5ccc(C(=O)NS(=O)(=O)c6ccc(NC[C@H]7CC[C@](C)(O)CC7)c([N+](=O)[O-])c6)c(Oc6cnc7[nH]ccc7c6)c5)CC4)C3)C(c3ccccc3C(C)C)C2)cc1Cl (stereo partly drawn) [Example 128, 2-((1H-pyrrolo[2,3-b]pyridin-5-yl)oxy)-4-(2-(4-(3-chloro-4-methoxybenzyl)-2-(2-isopropylphenyl)piperazin-1-yl)-7-azaspiro[3.5]nonan-7-yl)-N-((4-((((1r,4r)-4-hydroxy-4-methylcyclohexyl)methyl)amino)-3-nitrophenyl)sulfonyl)benzamide] | 3.94 | 4 | 2.6 | 0.63 | 0.36
